Measurements taken from patent US9290451B2 (Hoffmann-La Roche Inc., priority 2011, dated 2016).
Like-named read-outs stand apart in the source and are kept apart here.

What was measured:
human CB1 receptors = human CB1 receptors (Homo sapiens (Human), UniProt P21554); assay: cAMP assay, CHO cells expressing human CB1 receptors; type: cell-based; conditions: CHO cells expressing human CB1, cAMP; read-out: human CB1 EC50
Procedure: (§1) CHO cells expressing human CB1 or CB2 receptors are seeded 17-24 hours prior to the experiment 50.000 cells per well in a black 96 well plate with flat clear bottom (Corning Costar #3904) in DMEM (Invitrogen No. 31331), 1×HT supplement, with 10% fetal calf serum and incubated at 5% CO2 and 37° C. in a humidified incubator. The growth medium was exchanged with Krebs Ringer Bicarbonate buffer with 1 mM IBMX and incubated at 30° C. for 30 min Compounds were added to a final assay volume of 100 μl and incubated for 30 min at 30° C. Using the cAMP-Nano-TRF detection kit the assay (Roche Diagnostics) was stopped by the addition of 50 μl lysis reagent (Tris, NaCl, 1.5% Triton X100, 2.5% NP40, 10% NaN3) and 50 μl detection solutions (20 μM mAb Alexa700-cAMP 1:1, and 48 μM Ruthenium-2-AHA-cAMP) and shaken for 2 h at room temperature. The time-resolved energy transfer is measured by a TRF reader (Evotec Technologies GmbH), equipped with a ND:YAG laser as excitation source. The plate is measured twice with the excitation at 355 nm and at the emission with a delay of 100 ns and a gate of 100 ns, total exposure time 10 s at 730 (bandwidth 30 nm) or 645 nm (bandwidth 75 nm), respectively. The FRET signal is calculated as follows: FRET=T730-Alexa730-P(T645-B645) with P═Ru730-B730/Ru645-B645, where T730 is the test well measured at […], T645 is the test well measured at 645 nm, B730 and B645 are the buffer controls at 730 nm and 645 nm, respectively. cAMP content is determined from the function of a standard curve spanning from 10 μM to 0.13 nM cAMP.
(§2) EC50 values were determined using Activity Base analysis (ID Business Solution, Limited). The EC50 values for a wide range of cannabinoid agonists generated from this assay for reference compounds were in agreement with the values published in the scientific literature.

human CB2 receptors = human CB2 receptors (Homo sapiens (Human), UniProt P34972); assay: cAMP assay, CHO cells expressing human CB2 receptors; type: cell-based
Chain of human CB2 receptors (P34972 whole entry): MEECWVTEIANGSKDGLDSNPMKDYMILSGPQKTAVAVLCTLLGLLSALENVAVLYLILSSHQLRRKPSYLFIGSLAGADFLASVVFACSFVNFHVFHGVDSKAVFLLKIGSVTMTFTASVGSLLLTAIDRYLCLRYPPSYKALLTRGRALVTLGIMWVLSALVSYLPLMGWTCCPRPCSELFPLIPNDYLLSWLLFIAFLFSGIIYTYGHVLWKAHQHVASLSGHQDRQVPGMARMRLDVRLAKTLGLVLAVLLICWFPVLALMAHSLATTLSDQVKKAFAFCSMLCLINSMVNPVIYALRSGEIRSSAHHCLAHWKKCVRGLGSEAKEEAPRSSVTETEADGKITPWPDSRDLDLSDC
Procedure: as §1, §2

[1] = CHO cells expressing human CB2, cAMP, read-out: human CB2 EC50

Chain of human CB1 receptors (P21554 whole entry): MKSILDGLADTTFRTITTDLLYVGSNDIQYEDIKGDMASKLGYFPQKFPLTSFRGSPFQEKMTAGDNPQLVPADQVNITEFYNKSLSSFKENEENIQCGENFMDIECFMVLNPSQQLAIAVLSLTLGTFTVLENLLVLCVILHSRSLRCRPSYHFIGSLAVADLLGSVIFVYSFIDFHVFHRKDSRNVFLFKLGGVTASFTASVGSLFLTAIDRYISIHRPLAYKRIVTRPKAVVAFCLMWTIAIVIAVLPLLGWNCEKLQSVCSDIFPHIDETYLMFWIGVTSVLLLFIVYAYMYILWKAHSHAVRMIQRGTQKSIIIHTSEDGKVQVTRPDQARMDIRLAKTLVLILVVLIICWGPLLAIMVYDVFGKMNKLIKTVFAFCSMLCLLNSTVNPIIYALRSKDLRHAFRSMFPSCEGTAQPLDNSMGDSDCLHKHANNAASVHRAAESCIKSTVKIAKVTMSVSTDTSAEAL

| SMILES | EC50 (human CB1 receptors) [nM] | EC50 (human CB2 receptors; [1]) [nM] | EC50 (human CB2 receptors) [nM] |
| --- | --- | --- | --- |
| Cc1nc([C@](C)(NC(=O)c2ccc(C3CC3)c(S(=O)(=O)CC(C)C)n2)C2CC2)no1 [Example 381, (+)-5-Cyclopropyl-6-(2-methyl-propane-1-sulfonyl)-pyridine-2-carboxylic acid [1-cyclopropyl-1-(5-methyl-[1,2,4]oxadiazol-3-yl)-ethyl]-amide] | 240 | 11.4 | – |
| CC(C)(C)[C@H](NC(=O)c1ccc(N2CC(F)(F)C2)c(OCC2CC2)n1)C(=O)N1CC(F)(F)C1 [Example 310, 6-Cyclopropylmethoxy-5-(3,3-difluoro-azetidin-1-yl)-pyridine-2-carboxylic acid [(S)-1-(3,3-difluoro-azetidine-1-carbonyl)-2,2-dimethyl-propyl]-amide] | > 10000 | 14.7 | – |
| Cc1nc(C(C)(C)NC(=O)c2ccc(N3CCCC3)c(OCC3CC3)n2)no1 [Example 33, 6-Cyclopropylmethoxy-5-pyrrolidin-1-yl-pyridine-2-carboxylic acid [1-methyl-1-(5-methyl-[1,2,4]oxadiazol-3-yl)-ethyl]-amide] | > 10000 | 23.1 | – |
| Cc1ccc(C(=O)N[C@@H](CC2CC2)c2nccs2)nc1OCC1CC1 [Example 65, 6-Cyclopropylmethoxy-5-methyl-pyridine-2-carboxylic acid ((S)-2-cyclopropyl-1-thiazol-2-yl-ethyl)-amide] | > 10000 | 33.8 | – |
| CNC(=O)[C@H](CC(C)C)NC(=O)c1ccc(C2CC2)c(OCC2CC2)n1 [Example 181, (S)-5-cyclopropyl-6-(cyclopropylmethoxy)-N-(4-methyl-1-(methylamino)-1-oxopentan-2-yl)picolinamide] | 231 | 1.3 | – |
| CC1(COc2nc(C(=O)NC(c3ccccn3)C(F)(F)F)ccc2Br)COC1 (stereo not shown) [Example 283, 5-Bromo-6-(3-methyl-oxetan-3-ylmethoxy)-pyridine-2-carboxylic acid (2,2,2-trifluoro-1-pyridin-2-yl-ethyl)-amide] | > 10000 | 109 | – |
| Cc1nc([C@@](C)(CC2CC2)NC(=O)c2ccc(C3CC3)c(OCC3CC3)n2)no1 [Example 358, 5-Cyclopropyl-6-cyclopropylmethoxy-pyridine-2-carboxylic acid [(−)-2-cyclopropyl-1-methyl-1-(5-methyl-[1,2,4]oxadiazol-3-yl)-ethyl]-amide] | 489 | 4.9 | – |
| NC(=O)[C@@H](NC(=O)c1ccc(C2CC2)c(OCC2CC2)n1)c1ccc(Cl)cc1 [Example 329, 5-Cyclopropyl-6-cyclopropylmethoxy-pyridine-2-carboxylic acid [(S)-carbamoyl-(4-chloro-phenyl)-methyl]-amide] | > 10000 | 21.1 | – |
| CC(C)(NC(=O)c1cccc(-c2cccc(Cl)c2)n1)c1nnco1 [Example 17, 6-(3-Chloro-phenyl)-pyridine-2-carboxylic acid (1-methyl-1-[1,3,4]oxadiazol-2-yl-ethyl)-amide] | > 10000 | 566 | – |
| Cc1nc(C(NC(=O)c2ccc(N3CC(F)(F)C3)c(OCC3CC3)n2)C2CC2)no1 (stereo not shown) [Example 221, 6-Cyclopropylmethoxy-5-(3,3-difluoro-azetidin-1-yl)-pyridine-2-carboxylic acid [cyclopropyl-(5-methyl-[1,2,4]oxadiazol-3-yl)-methyl]-amide] | 10000 | 12.8 | – |
| COC(=O)C(C)(C)NC(=O)c1ccc(C2CCOCC2)c(OCC2CC2)n1 [Example 9, 2-{[6-Cyclopropylmethoxy-5-(tetrahydro-pyran-4-yl)-pyridine-2-carbonyl]-amino}-2-methyl-propionic acid methyl ester] | > 10000 | 55.8 | – |
| CNC(=O)[C@@H](NC(=O)c1ccc(C2CC2)c(OCC2CC2)n1)c1ccccc1 [Example 225, 5-Cyclopropyl-6-cyclopropylmethoxy-pyridine-2-carboxylic acid ((−)-methylcarbamoyl-phenyl-methyl)-amide] | > 10000 | 48.4 | – |
| Cc1nsc(C(C)(C)NC(=O)c2cccc(-c3cccc(Cl)c3)n2)n1 [Example 22, 6-(3-Chloro-phenyl)-pyridine-2-carboxylic acid [1-methyl-1-(3-methyl-[1,2,4]thiadiazol-5-yl)-ethyl]-amide] | > 10000 | 635 | – |
| NC(=O)[C@H](CC1CC1)NC(=O)c1ccc(Br)c(OCC2CC2)n1 [Example 110, 5-Bromo-6-cyclopropylmethoxy-pyridine-2-carboxylic acid ((S)-1-carbamoyl-2-cyclopropyl-ethyl)-amide] | > 10000 | 224 | – |
| Cc1nc(C(C)(C)NC(=O)c2ccc(C3CCCO3)c(-c3cccc(Cl)c3)n2)no1 (stereo not shown) [Example 125, 6-(3-Chloro-phenyl)-5-(tetrahydro-furan-2-yl)-pyridine-2-carboxylic acid [1-methyl-1-(5-methyl-[1,2,4]oxadiazol-3-yl)-ethyl]-amide] | > 10000 | 209 | – |
| CCC(CC)(NC(=O)c1ccc(Cl)c(-c2cccc(Cl)c2)n1)C(=O)NC [Example 91, 5-Chloro-6-(3-chloro-phenyl)-pyridine-2-carboxylic acid (1-ethyl-1-methylcarbamoyl-propyl)-amide] | > 10000 | 632 | – |
| CNC(=O)[C@H](CC(C)(C)C)NC(=O)c1ccc(C2CC2)c(OCC2CCOCC2)n1 [Example 196, (S)-5-Cyclopropyl-N-(4,4-dimethyl-1-(methylamino)-1-oxopentan-2-yl)-6-((tetrahydro-2H-pyran-4-yl)methoxy)picolinamide] | > 10000 | 10.3 | – |
| CC(C)(NC(=O)c1ccc(N2CC(O)C2)c(OCC2CC2)n1)c1nccs1 [Example 75, 6-Cyclopropylmethoxy-5-(3-hydroxy-azetidin-1-yl)-pyridine-2-carboxylic acid (1-methyl-1-thiazol-2-yl-ethyl)-amide] | > 10000 | 15.2 | – |
| COC(=O)C(C)(C)NC(=O)c1cccc(-c2ccccc2Cl)n1 [Example 2, Methyl 2-(6-(2-chlorophenyl)picolinamido)-2-methylpropanoate] | – | 57.7 | – |
| COC(=O)C(C)(C)NC(=O)c1cccc(-c2cccc(Cl)c2)n1 [Example 1, Methyl 2-(6-(3-chlorophenyl)picolinamido)-2-methylpropanoate] | – | 68.5 | – |
| COC(=O)C(C)(C)NC(=O)c1ccc(C)c(Nc2ccc(Cl)cc2Cl)n1 [Example 6, Methyl 2-(6-(2,4-dichlorophenylamino)-5-methylpicolinamido)-2-methylpropanoate] | – | 376 | – |
| COC(=O)C(C)(C)NC(=O)c1cccc(C2CCCCC2)n1 [Example 7, 2-[(6-Cyclohexyl-pyridine-2-carbonyl)-amino]-2-methyl-propionic acid methyl ester] | – | 32.1 | – |
| O=C(N[C@@H](CC1CC1)C(=O)NN1CCC(O)C1)c1ccc(C2CC2)c(OCC2CC2)n1 (single isomer, unassigned; (+)) [Example 379] | – | – | 26.4 |
| COC(=O)C(C)(C)NC(=O)c1ccc(C)c(OCC(F)(F)F)n1 [Example 4, Methyl 2-methyl-2-(5-methyl-6-(2,2,2-trifluoroethoxy)picolinamido)propanoate] | – | 77.2 | – |
| COC(=O)C(C)(C)NC(=O)c1ccc(C2CC2)c(Nc2ccc(Cl)cc2Cl)n1 [Example 5, Methyl 2-(5-cyclopropyl-6-(2,4-dichlorophenylamino)picolinamido)-2-methylpropanoate] | – | 434 | – |
